In patent publication EP0800503B1, “NOVEL TRIENOIC RETINOID COMPOUNDS AND METHODS” (LIGAND PHARMACEUTICALS, INC., priority 1994, dated 1996):
Like-named read-outs stand apart in the source and are kept apart here.

What was measured:
RARα [1] = target: T1, RARα (Homo sapiens, UniProt P10276); assay: Co-transfection assay; format: cell-based; details: read-out: RARα Pot
T1 sequence (P10276 1-462): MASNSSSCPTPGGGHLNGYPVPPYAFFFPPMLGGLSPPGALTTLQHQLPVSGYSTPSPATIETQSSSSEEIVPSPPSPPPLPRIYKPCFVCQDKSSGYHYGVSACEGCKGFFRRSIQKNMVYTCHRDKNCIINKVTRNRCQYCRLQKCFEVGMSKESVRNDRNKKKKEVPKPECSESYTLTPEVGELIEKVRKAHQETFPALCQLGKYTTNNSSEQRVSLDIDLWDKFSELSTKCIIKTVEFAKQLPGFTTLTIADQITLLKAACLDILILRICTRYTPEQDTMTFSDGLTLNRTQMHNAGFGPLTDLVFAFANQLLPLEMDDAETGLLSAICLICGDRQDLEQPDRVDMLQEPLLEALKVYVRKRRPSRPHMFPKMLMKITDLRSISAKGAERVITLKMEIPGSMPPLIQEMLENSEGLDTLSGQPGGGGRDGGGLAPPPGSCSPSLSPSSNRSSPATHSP

RARβ = target: T2, RARβ (Homo sapiens, UniProt P10826); assay: Co-transfection assay; format: cell-based; details: read-out: RARβ Pot
T2 sequence (P10826 1-448 isoform P10826-2): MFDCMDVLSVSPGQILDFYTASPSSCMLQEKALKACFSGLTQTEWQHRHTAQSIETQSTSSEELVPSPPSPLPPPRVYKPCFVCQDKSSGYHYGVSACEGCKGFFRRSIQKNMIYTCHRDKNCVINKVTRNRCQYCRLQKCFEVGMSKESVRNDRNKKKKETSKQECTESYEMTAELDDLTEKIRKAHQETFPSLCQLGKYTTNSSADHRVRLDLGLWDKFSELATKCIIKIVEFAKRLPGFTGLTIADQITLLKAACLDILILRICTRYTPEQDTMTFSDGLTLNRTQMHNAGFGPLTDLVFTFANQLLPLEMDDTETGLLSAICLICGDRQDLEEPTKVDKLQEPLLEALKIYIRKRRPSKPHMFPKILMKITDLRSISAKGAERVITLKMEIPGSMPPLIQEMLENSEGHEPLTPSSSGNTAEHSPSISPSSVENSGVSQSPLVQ

RARγ = target: T3, RARγ (Homo sapiens, UniProt P13631); assay: Co-transfection assay; format: cell-based; details: read-out: RARγ Pot
T3 sequence (P13631 1-454): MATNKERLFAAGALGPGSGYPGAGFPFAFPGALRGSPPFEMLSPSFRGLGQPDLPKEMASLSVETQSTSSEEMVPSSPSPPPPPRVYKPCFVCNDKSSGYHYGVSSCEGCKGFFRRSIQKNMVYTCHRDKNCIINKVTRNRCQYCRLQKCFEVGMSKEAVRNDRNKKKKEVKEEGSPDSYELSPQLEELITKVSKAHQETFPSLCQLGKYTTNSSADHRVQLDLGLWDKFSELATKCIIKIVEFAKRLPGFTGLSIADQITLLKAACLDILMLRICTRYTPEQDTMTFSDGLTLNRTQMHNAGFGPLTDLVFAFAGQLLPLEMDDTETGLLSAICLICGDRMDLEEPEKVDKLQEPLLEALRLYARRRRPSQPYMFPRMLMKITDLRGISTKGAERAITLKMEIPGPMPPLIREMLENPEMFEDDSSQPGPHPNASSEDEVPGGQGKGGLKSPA

RXRα = target: T4, RXRα (Homo sapiens, UniProt P19793); assay: Co-transfection assay; format: cell-based; details: read-out: RXRα Pot
T4 sequence (P19793 1-462): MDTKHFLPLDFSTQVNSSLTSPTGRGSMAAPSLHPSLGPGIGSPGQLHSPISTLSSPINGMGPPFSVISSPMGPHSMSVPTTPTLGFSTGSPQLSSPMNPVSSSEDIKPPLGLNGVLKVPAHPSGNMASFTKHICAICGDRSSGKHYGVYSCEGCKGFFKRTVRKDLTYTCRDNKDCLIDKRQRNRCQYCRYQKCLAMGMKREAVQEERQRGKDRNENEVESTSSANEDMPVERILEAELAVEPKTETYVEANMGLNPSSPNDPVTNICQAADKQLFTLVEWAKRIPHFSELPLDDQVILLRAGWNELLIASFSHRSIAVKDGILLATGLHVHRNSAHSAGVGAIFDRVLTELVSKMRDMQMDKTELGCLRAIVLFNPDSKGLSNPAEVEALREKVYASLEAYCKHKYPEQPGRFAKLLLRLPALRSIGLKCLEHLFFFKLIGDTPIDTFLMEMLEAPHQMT

RXRβ = target: T5, RXRβ (Mus musculus, UniProt P28704); assay: Co-transfection assay; format: cell-based; details: read-out: RXRβ Pot
T5 sequence (P28704 1-520): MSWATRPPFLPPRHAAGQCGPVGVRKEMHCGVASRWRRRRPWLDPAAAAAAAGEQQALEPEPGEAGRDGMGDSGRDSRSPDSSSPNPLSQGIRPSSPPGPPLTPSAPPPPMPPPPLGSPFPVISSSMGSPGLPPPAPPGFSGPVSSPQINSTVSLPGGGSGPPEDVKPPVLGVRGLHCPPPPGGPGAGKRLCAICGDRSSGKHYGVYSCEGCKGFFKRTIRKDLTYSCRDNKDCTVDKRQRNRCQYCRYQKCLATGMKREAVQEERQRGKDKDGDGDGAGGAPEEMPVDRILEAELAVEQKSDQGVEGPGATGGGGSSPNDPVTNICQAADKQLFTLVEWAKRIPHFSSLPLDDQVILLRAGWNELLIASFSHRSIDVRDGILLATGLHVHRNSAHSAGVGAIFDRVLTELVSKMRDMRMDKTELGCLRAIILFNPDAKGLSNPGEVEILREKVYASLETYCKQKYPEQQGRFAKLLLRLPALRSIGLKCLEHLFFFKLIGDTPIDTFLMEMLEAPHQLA

RXRγ = target: T6, RXRγ (Mus musculus, UniProt P28705); assay: Co-transfection assay; format: cell-based; details: read-out: RXRγ Pot
T6 sequence (P28705 1-463): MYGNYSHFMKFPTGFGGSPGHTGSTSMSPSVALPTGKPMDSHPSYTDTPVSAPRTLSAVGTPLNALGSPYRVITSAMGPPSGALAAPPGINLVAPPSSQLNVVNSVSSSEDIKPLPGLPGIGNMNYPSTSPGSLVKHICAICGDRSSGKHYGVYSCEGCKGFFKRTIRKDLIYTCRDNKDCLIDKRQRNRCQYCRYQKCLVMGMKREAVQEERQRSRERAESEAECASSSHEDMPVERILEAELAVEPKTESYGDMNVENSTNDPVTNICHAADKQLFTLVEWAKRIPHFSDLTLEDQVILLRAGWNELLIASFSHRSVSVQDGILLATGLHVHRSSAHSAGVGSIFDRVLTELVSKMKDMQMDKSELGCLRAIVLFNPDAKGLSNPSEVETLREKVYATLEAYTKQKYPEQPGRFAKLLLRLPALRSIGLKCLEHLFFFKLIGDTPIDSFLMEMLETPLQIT

RARα [2] = target: T1, RARα; assay: Receptor binding (competition with tritiated retinoids); details: from IC50 by Cheng-Prussof equation
RPMI 8226 cell line = assay: Viability (tetrazolium dye, MTS); format: cell-based; details: Homo sapiens, 96 hours, mitochondrial function / viability
ME 180 cell line = assay: Viability (tetrazolium dye, MTS); format: cell-based; details: Homo sapiens, 96 hours, mitochondrial function / viability
AML-193 cell line = assay: Viability (tetrazolium dye, MTS); format: cell-based; details: Homo sapiens, 96 hours, mitochondrial function / viability
TPA induction of ODC = assay: Ornithine decarboxylase (ODC) assay, inhibition of TPA induction of ODC; format: cell-based; details: concentration required to inhibit the TPA induction of ODC by 80 percent

| Compound | EC50 (RARα [1]) [nM] | EC50 (RARβ) [nM] | EC50 (RARγ) [nM] | EC50 (RXRα) [nM] | EC50 (RXRβ) [nM] | EC50 (RXRγ) [nM] | further results |
| --- | --- | --- | --- | --- | --- | --- | --- |
| CC1=C(/C=C/C(C)=C/C=C/C(C)=C/C(=O)O)C(C)(C)CCC1 [ATRA, all-trans retinoic acid, reference compound] | – | – | – | – | – | – | IC50 (RPMI 8226 cell line): 756 nM; IC50 (ME 180 cell line): 890 nM; IC50 (AML-193 cell line): 1000 nM |
| COc1ccc(/C(C)=C/C=C/C(C)=C/C(=O)O)cc1 [B, (2E,4E,6E)-3-methyl-7-(4-methoxyphenyl)octa-2,4,6-trienoic acid, reference compound] | > 10000 | > 10000 | > 10000 | > 10000 | > 10000 | > 10000 | – |
| CCOC(=O)/C=C(C)/C=C/C=C(\C)c1cc(C(C)(C)C)cc(C(C)(C)C)c1 [Compound 7, Ethyl (2E, 4E, 6E)-7-(3,5-di-t-butylphenyl)-3-methylocta-2,4,6-trienoate] | – | – | – | – | – | – | IC80 (TPA induction of ODC): 4.73 nM |
| CCOC(=O)/C=C(C)/C=C/C=C(/C)c1cc(C(C)(C)C)cc(C(C)(C)C)c1 [Compound 8, Ethyl (2E,4E, 6Z)-7-(3,5-di-t-butylphenyl)-3-methylocta-2,4,6-trienoate] | – | – | – | – | – | – | IC80 (TPA induction of ODC): 152 nM |
| CCC/C(=C/C=C/C(C)=C/C(=O)O)c1cc(C(C)(C)C)cc(C(C)(C)C)c1 [Compound 28, (2E, 4E, 6Z)-7-(3,5-di-t-butylphenyl)-3-methyldeca-2,4,6-trienoic acid] | > 10000 | > 10000 | > 10000 | 20 | 104 | 50 | – |
| CC(/C=C/C=C(\C)c1cc(C(F)(F)F)cc(C(F)(F)F)c1)=C\C(=O)O [Compound 41, (2E, 4E, 6E)-7-(3,5-Di-trifluoromethylphenyl)-3-methylocta-2,4,6-trienoic acid] | 3 | 1 | 4 | 2010 | 266 | 2180 | – |
| COc1c(C(C)(C)C)cc(/C(C)=C/C=C/C(C)=C/C(=O)O)cc1C(C)(C)C [Compound 47, (2E, 4E, 6E) -3-Methyl-7-(3,5-di-t-butyl-4-methoxyphenyl)octa-2,4,6-trienoic acid] | > 10000 | 1 | 1 | > 10000 | > 10000 | > 10000 | – |
| COC(/C=C/C=C(\C)c1ccc(C(C)(C)C)cc1)=C/C(=O)O [D, (2E,4E,6E)-3-methoxy-7-(4-t-butylphenyl)octa-2,4,6-trienoic acid, reference compound] | > 10000 | > 10000 | > 10000 | > 10000 | > 10000 | > 10000 | – |
| (2E,4E,6Z)-3-Methyl-7-(3,4-diethyl-6-methylphenyl)nona-2,4,6-trienoic acid [Compound 54] | – | – | – | – | – | – | EC50 (RARα [1]; CV-1 cells, pRShRARα, D-MTV-LUC reporter, 40 hours, potency = EC50): > 10000 nM; EC50 (RARβ; CV-1 cells, pRShRARβ, D-MTV-LUC reporter, 40 hours, potency = EC50): 130 nM; EC50 (RARγ; CV-1 cells, pRShRARγ, D-MTV-LUC reporter, 40 hours, potency = EC50): 320 nM; EC50 (RXRα; CV-1 cells, pRShRXRα, CRBPIIFKLUC reporter, 40 hours, potency = EC50): 58 nM; EC50 (RXRβ; CV-1 cells, pRSmRXRβ, CRBPIIFKLUC reporter, 40 hours, potency = EC50): 28 nM; EC50 (RXRγ; CV-1 cells, pRSmRXRγ, CRBPIIFKLUC reporter, 40 hours, potency = EC50): 78 nM |

Second part, led by results:

| EC50 (RARα [1]) [nM] | EC50 (RARβ) [nM] | EC50 (RARγ) [nM] | EC50 (RXRα) [nM] | EC50 (RXRβ) [nM] | EC50 (RXRγ) [nM] | Compound | further results |
| --- | --- | --- | --- | --- | --- | --- | --- |
| > 10000 | 1480 | > 10000 | > 10000 | > 10000 | > 10000 | COc1ccc(/C(C)=C/C=C/C(C)=C/C(=O)O)cc1OC [A, (2E,4E,6E)-3-methyl-7-(3,4-dimethoxyphenyl)octa-2,4,6-trienoic acid, reference compound] | Kd (RARα [2]): 312 nM |
| > 10000 | > 10000 | > 10000 | > 10000 | > 10000 | > 10000 | COc1cc(C)c(/C=C/C=C/C=C(\C)C(=O)O)c(C)c1C [C, (2E,4E,6E)-2-methyl-7-(2,3,6-trimethyl-4-methoxyphenyl)hepta-2,4,6-trienoic acid, reference compound] | – |
| 5 | 3 | 3 | > 10000 | > 10000 | > 10000 | CC(/C=C/C=C1\CCOc2c1cc(C(C)(C)C)cc2C(C)(C)C)=C\C(=O)O [Compound 39, (2E,4E,6E)-6-(6,8,-Di-t-butylchroman-4-ylidene)-3-methylhexa-2,4,6-trienoic acid] | – |
| 65 | 22 | 16 | 27 | 27 | 19 | C/C(=C/C=C/C(C)=C/C(=O)O)c1cc(C(C)C)cc(C(C)C)c1 [Compound 43, (2E, 4E, 6Z)-7-(3,5-Di-isopropylphenyl)-3-methylocta-2,4,6-trienoic acid] | – |
